In ChEMBL document CHEMBL5096202, “Carbon-silicon switch led to the discovery of novel synthetic cannabinoids with therapeutic effects in a mouse model of multiple sclerosis” (Eur J Med Chem, 2021):
pEC50, pKi: −log10 of the molar value.

These compounds were tested against T1, Cannabinoid receptor 2 (Homo sapiens, UniProt P34972) (assay: Agonist activity at recombinant human CB2 receptor expressed in CHO cells assessed as inhibition of forskolin-induced cAMP accumulation by measuring maximum efficacy preincubated for 15 mins followed by forskolin stimulation and measured after 15 mins by HTRF assay relative to control). Conditions: filed as agonist, time 30.0 min.
T1 sequence (P34972 whole entry): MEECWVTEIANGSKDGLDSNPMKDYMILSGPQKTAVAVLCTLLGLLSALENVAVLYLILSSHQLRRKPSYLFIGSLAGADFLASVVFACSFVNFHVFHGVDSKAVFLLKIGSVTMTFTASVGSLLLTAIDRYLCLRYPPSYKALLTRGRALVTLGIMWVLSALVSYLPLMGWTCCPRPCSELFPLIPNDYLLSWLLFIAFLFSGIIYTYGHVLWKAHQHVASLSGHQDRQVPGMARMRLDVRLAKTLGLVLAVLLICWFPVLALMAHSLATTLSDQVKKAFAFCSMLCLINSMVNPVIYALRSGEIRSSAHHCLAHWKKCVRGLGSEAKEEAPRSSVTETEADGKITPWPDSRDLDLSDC
Type: functional, cell-based

Row | Structure (SMILES) | Emax
1 | CCCC[Si](C)(C)c1cc(O)c2c(c1)OC(C)(C)c1ccc(CO)cc1-2 | 92.8%
2 | CCCC[Si](C)(C)c1cc(O)c(C2CCCCCC2)c(O)c1 | 93.4%
3 | CCCCCC[Si](C)(C)c1cc(O)c2c(c1)OC(C)(C)c1ccc(CO)cc1-2 | 92.7%
4 | CCCC[Si](C)(C)c1cc(O)c2c(c1)OC(C)(C)c1ccc(C)cc1-2 | 90.4%
5 | CC[Si](C)(C)c1cc(O)c2c(c1)OC(C)(C)[C@@H]1CCC(C)=C[C@@H]21 | 84.8%
6 | CCCC[Si](C)(C)c1cc(O)c(C2CCCCCC2)c(OC)c1 | 93.3%
7 | C=C(C)[C@@H]1CCC(C)=C[C@H]1c1c(O)cc([Si](C)(C)CCCC)cc1O | 82.7%

These compounds were tested against T2, Cannabinoid receptor 1 (Homo sapiens, UniProt P21554) (assay: Displacement of [3H]-CP55940 from recombinant human CB1 receptor expressed in CHO cells assessed as inhibition constant incubated for 120 mins by radioligand binding assay). Conditions: not given.
T2 sequence (P21554 whole entry): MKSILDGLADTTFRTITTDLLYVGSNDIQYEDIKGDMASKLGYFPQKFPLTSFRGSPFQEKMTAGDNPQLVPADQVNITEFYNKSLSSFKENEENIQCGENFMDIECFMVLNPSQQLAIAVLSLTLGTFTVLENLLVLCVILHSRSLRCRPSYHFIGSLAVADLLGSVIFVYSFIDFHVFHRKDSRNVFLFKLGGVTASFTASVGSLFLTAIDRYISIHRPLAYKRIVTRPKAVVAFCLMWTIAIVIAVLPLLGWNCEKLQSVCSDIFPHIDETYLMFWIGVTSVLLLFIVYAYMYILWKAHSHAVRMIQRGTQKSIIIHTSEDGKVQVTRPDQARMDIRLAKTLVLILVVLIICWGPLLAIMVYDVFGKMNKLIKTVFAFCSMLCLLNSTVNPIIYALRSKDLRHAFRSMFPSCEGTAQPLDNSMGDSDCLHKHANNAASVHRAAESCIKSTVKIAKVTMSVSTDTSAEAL
Type: cell-based

Row | Structure (SMILES) | pKi
8 | CCCC[Si](C)(C)c1cc(O)c2c(c1)OC(C)(C)c1ccc(CO)cc1-2 | 8.55
9 | CCCC[Si](C)(C)c1cc(O)c(C2CCCCCC2)c(O)c1 | 6.85
10 | CCCCCC[Si](C)(C)c1cc(O)c2c(c1)OC(C)(C)c1ccc(CO)cc1-2 | 9.46
11 | CCCC[Si](C)(C)c1cc(O)c2c(c1)OC(C)(C)c1ccc(C)cc1-2 | 8.29
12 | CC[Si](C)(C)c1cc(O)c2c(c1)OC(C)(C)[C@@H]1CCC(C)=C[C@@H]21 | 7.71
13 | C=C(C)[C@@H]1CCC(C)=C[C@H]1c1c(O)cc([Si](C)(C)CCCC)cc1O | 7.82

Each compound was assayed against T1, Cannabinoid receptor 2 (assay: Displacement of [3H]-CP55940 from recombinant human CB2 receptor expressed in CHO cells assessed as inhibition constant incubated for 120 mins by radioligand binding assay). Conditions: not given.
Type: cell-based

Row | Structure (SMILES) | pKi
14 | CCCC[Si](C)(C)c1cc(O)c2c(c1)OC(C)(C)c1ccc(CO)cc1-2 | 8.46
15 | CCCC[Si](C)(C)c1cc(O)c(C2CCCCCC2)c(O)c1 | 7.20
16 | CCCCCC[Si](C)(C)c1cc(O)c2c(c1)OC(C)(C)c1ccc(CO)cc1-2 | 8.90
17 | CCCC[Si](C)(C)c1cc(O)c2c(c1)OC(C)(C)c1ccc(C)cc1-2 | 8.30
18 | CC[Si](C)(C)c1cc(O)c2c(c1)OC(C)(C)[C@@H]1CCC(C)=C[C@@H]21 | 5.97
19 | CCCC[Si](C)(C)c1cc(O)c(C2CCCCCC2)c(OC)c1 | 6.21
20 | C=C(C)[C@@H]1CCC(C)=C[C@H]1c1c(O)cc([Si](C)(C)CCCC)cc1O | 8.14

Each compound was assayed against T2, Cannabinoid receptor 1 (assay: Agonist activity at recombinant human CB1 receptor expressed in CHO cells assessed as inhibition of forskolin-induced cAMP accumulation preincubated for 15 mins followed by forskolin stimulation and measured after 15 mins by HTRF assay). Conditions: not given.
Type: functional, cell-based

Row | Structure (SMILES) | pEC50
21 | CCCC[Si](C)(C)c1cc(O)c2c(c1)OC(C)(C)c1ccc(CO)cc1-2 | 6.67
22 | CCCC[Si](C)(C)c1cc(O)c(C2CCCCCC2)c(O)c1 | 6.08
23 | CCCCCC[Si](C)(C)c1cc(O)c2c(c1)OC(C)(C)c1ccc(CO)cc1-2 | 7.23
24 | CCCC[Si](C)(C)c1cc(O)c2c(c1)OC(C)(C)c1ccc(C)cc1-2 | 6.40
25 | C=C(C)[C@@H]1CCC(C)=C[C@H]1c1c(O)cc([Si](C)(C)CCCC)cc1O | 6.39

Each compound was assayed against T1, Cannabinoid receptor 2 (assay: Agonist activity at recombinant human CB2 receptor expressed in CHO cells assessed as inhibition of forskolin-induced cAMP accumulation preincubated for 15 mins followed by forskolin stimulation and measured after 15 mins by HTRF assay). Conditions: not given.
Type: functional, cell-based

Row | Structure (SMILES) | pEC50
26 | CCCC[Si](C)(C)c1cc(O)c2c(c1)OC(C)(C)c1ccc(CO)cc1-2 | 6.57
27 | CCCC[Si](C)(C)c1cc(O)c(C2CCCCCC2)c(O)c1 | 7.07
28 | CCCCCC[Si](C)(C)c1cc(O)c2c(c1)OC(C)(C)c1ccc(CO)cc1-2 | 4.56
29 | CCCC[Si](C)(C)c1cc(O)c2c(c1)OC(C)(C)c1ccc(C)cc1-2 | 6.57
30 | CC[Si](C)(C)c1cc(O)c2c(c1)OC(C)(C)[C@@H]1CCC(C)=C[C@@H]21 | 6.45
31 | CCCC[Si](C)(C)c1cc(O)c(C2CCCCCC2)c(OC)c1 | 6.32
32 | C=C(C)[C@@H]1CCC(C)=C[C@H]1c1c(O)cc([Si](C)(C)CCCC)cc1O | 6.72

The compounds below were run against T2, Cannabinoid receptor 1 (assay: Agonist activity at recombinant human CB1 receptor expressed in CHO cells assessed as inhibition of forskolin-induced cAMP accumulation by measuring maximum efficacy preincubated for 15 mins followed by forskolin stimulation and measured after 15 mins by HTRF assay relative to control). Conditions: filed as agonist, time 30.0 min.
Type: functional, cell-based

Row | Structure (SMILES) | Emax
33 | CCCC[Si](C)(C)c1cc(O)c2c(c1)OC(C)(C)c1ccc(CO)cc1-2 | 94.8%
34 | CCCC[Si](C)(C)c1cc(O)c(C2CCCCCC2)c(O)c1 | 65%
35 | CCCCCC[Si](C)(C)c1cc(O)c2c(c1)OC(C)(C)c1ccc(CO)cc1-2 | 93%
36 | CCCC[Si](C)(C)c1cc(O)c2c(c1)OC(C)(C)c1ccc(C)cc1-2 | 102%
37 | C=C(C)[C@@H]1CCC(C)=C[C@H]1c1c(O)cc([Si](C)(C)CCCC)cc1O | 94.6%
